# From US20040253255A1, “Biological compositions and methods for treatment of nasopharyngeal cancer” (priority 2003, published 2004)
# Read-outs that look alike come from different tables or passages of the source.
# What was measured:
# [1] = tested on: human nasopharyngeal cancer; assay type: in vivo; settings: tumor-bearing mice, 30 consecutive days of treatment, sacrificed on 31st day
# Method: The mice injected with tumor cells were divided into 4 experimental groups of ten mice per group and one control group. The four experimental groups were triplicated (i.e., using a total of 120 mice in the experimental groups).
# The mice in group CK2 also started receiving saline on the same day as the other four groups. The biological compositions, untreated yeast cells and saline were administered orally by a feeding tube and the CTX by intravenous injection for 30 consecutive days.
# [2] = tested on: human nasopharyngeal cancer; assay type: in vivo, mice; settings: for Number of live animals remaining in the groups after 30 days of treatment: mice, 30 per group
# Method: The biological composition comprising […] per ml of activated and conditioned yeast cells of the strain Saccharomyces carlsbergensis Hansen strain AS2.116 was prepared by the methods described in Section 5.1 and subsections therein.
# The animals were prepared in a similar manner as described in Section 8.1.
# (§1) The mice injected with tumor cells were divided into 4 experimental groups of ten mice per group and one control group. The four experimental groups were triplicated (i.e., using a total of 120 mice in the experimental groups). In group 2AY, the mice received 0.3 ml of the biological composition once per day. In group 2NY, the mice received 0.3 ml of the untreated yeast cells once per day. In group 2CTX, the mice were injected intravenously with 30 mg of cyclophosphamide (CTX) per kg body weight per day. In group 2CK1, the mice received 0.3 ml of physiological saline once per day.
# (§2) The mice received the biological compositions, untreated yeast cells, CTX or saline on the same day as the tumor cells were transplanted. The mice in group 2CK2 also started receiving saline on the same day as the other four groups. The biological compositions, untreated yeast cells and saline were administered orally by a feeding tube and the CTX by intravenous injection for 30 consecutive days. The mice were observed over 6 months from the day of tumor inoculation and survival was recorded. The weight of the mice and the weight of the tumor were determined by standard techniques.
# [3] = tested on: human nasopharyngeal cancer; test: rat model of human nasopharyngeal cancer, survival time; assay type: in vivo, Wistar rats; settings: for Number of live animals remaining in the groups after 21 days of treatment: rats, 30 per group
# Method: (§3) The biological composition comprising 10^8 cells per ml of activated and conditioned yeast cells of the strain Saccharomyces carlsbergensis Hansen strain AS2.116 was prepared by the methods described in Section 5.1 and subsections therein.
# The animals were prepared in a similar manner as described in Section 6.1.
# as §1, with “rats transplanted” for “mice injected”, “rats” for “mice”, “2.0” for “0.3”, “2TSPA,” for “2CTX,”, “1.5” for “with 30”, “thiotepa (TSPA)” for “cyclophosphamide (CTX)”
# as §2, with “rats” for “mice”, “TSPA” for “CTX”, “21” for “30”
# [4] = tested on: human nasopharyngeal cancer; test: rat model of human nasopharyngeal cancer, growth of the tumor; assay type: in vivo; settings: tumor-bearing Wistar rats, 21 consecutive days of treatment, sacrificed on 22nd day
# Method: as §3
# The animals used to generate the nasopharyngeal cancer cells for the experiments were Wistar rats, male and female, 190 to 210 gram in body weight. The rats were starved for 24 hours before the surgery.
# Human nasopharyngeal cancer samples (obtainable from Cancer Institute, The Chinese Academy of Medical Sciences, Beijing, China) were carefully selected before, during, and after surgery in order to ensure engraftment occurred at the original position in the rat. The nasopharyngeal cancer samples were obtained from patients who have not received any radiation, chemotherapy or immune enhancement treatment. Nasopharyngeal cancer samples were divided into sections of about 1 mm^3 in size and immediately stored in RPMI-1640 suspension after removal from the human patient.
# The animals were generally anaesthetized. […]
# The rats received the biological compositions, untreated yeast cells, TSPA or saline on the same day as the tumor cells were transplanted. […] On the 22nd day from tumor inoculation, the rats were sacrificed and the weight of the rats as well as the weight of the tumor were determined by standard techniques.
# [5] = 0 month after cessation of treatment
# [6] = 1 month after cessation of treatment
# [7] = 2 months after cessation of treatment
# [8] = 3 months after cessation of treatment
# [9] = 4 months after cessation of treatment
# [10] = 5 months after cessation of treatment
# [11] = 6 months after cessation of treatment
# [12] = rats that survived, observed over 6 months
# [13] = mice that survived, observed over 6 months
compound,measurement,setting,value
"O=P1(N(CCCl)CCCl)NCCCO1 (stereo not drawn) [CTX, cyclophosphamide]",mean weight of mice and standard deviation,[1],19.7 ± 2.4 g
same,mean weight of tumor nodules and standard deviation,[1],0.86 ± 0.13 g
same,Number of live animals remaining in the groups after 30 days of treatment,[2]; [5],30
same,Number of live animals remaining in the groups after 30 days of treatment,[2]; [6],27
same,Number of live animals remaining in the groups after 30 days of treatment,[2]; [7],17
same,Number of live animals remaining in the groups after 30 days of treatment,[2]; [8],11
same,Number of live animals remaining in the groups after 30 days of treatment,[2]; [9],3
same,Number of live animals remaining in the groups after 30 days of treatment,[2]; [10],0
same,Number of live animals remaining in the groups after 30 days of treatment,[2]; [11],0
same,survival of mice,[2]; observed over 6 months,all died during the experiment
"S=P(N1CC1)(N1CC1)N1CC1 [TSPA, thiotepa]",survival of rats,[3]; from injection of tumor cells,all died after four months from injection of tumor cells
same,mean weight of rats and standard deviation,[3]; [12],all animals dead
same,mean weight of tumor nodules and standard deviation,[3]; [12],all animals dead
same,Number of live animals remaining in the groups after 21 days of treatment,[3]; [5],30
same,Number of live animals remaining in the groups after 21 days of treatment,[3]; [6],26
same,Number of live animals remaining in the groups after 21 days of treatment,[3]; [7],24
same,Number of live animals remaining in the groups after 21 days of treatment,[3]; [8],17
same,Number of live animals remaining in the groups after 21 days of treatment,[3]; [9],7
same,Number of live animals remaining in the groups after 21 days of treatment,[3]; [10],0
same,Number of live animals remaining in the groups after 21 days of treatment,[3]; [11],0
same,mean weight of mice and standard deviation,[2]; [13],all animals dead
same,mean weight of tumor nodules and standard deviation,[2]; [13],all animals dead
same,mean weight of rats and standard deviation,[4],207 ± 3.8 g
same,mean weight of tumor nodules and standard deviation,[4],1.6 ± 0.74 mg
